Laboratory results as given in US11896704B2, “Compounds useful for the treatment and/or care of the skin, hair, nails and/or mucous membranes” (LUBRIZOL ADVANCED MATERIALS, INC., priority 2017, dated 2024).

How the values were obtained:
JARID1A gene = JARID1A gene expression in synchronized human epidermal keratinocytes (HEKa), real time PCR arrays; format: cell-based; settings: 0.5 mg/ml, one experiment
Protocol: In Vitro Study of JARID1A Gene Expression in Synchronized Human Epidermal Keratinocytes from Adult (HEKa) Using Real Time PCR Arrays.
HEKa cells (Life Technologies) are seeded at 3.0×10^5 cells/well in 12-well plates (2 wells per condition) and incubated in culture medium, Keratinocyte growth medium supplemented with Mix C39016-CaCl2 solution (Promocell). For synchronization, cells were subjected to two alternative cycles of 12 hours each at 37° C. in 5% CO2 humidified air (day mode) and 33° C. in 5% CO2 humidified air (night mode). 12 hours after starting synchronization, cells are incubated with the peptides at 0.5 mg/ml or (5 μg/ml) in culture medium, depending on the toxicity effects of each peptide (non-toxic conditions are selected). Cells treated with medium alone are used as basal condition.
At the end of synchronization, cell lysates are collected at two different times: 7:30 hour (early morning point) and 11:30 hour (midday point). Briefly, cells are lysed directly in the wells, and RNA is purified following the protocol described on the RNeasy™ Mini kit (Qiagen) according to the manufacture's protocol. After RNA elution, quantification and analysis of purity of RNA samples are performed with a nanodrop (Thermo). For each sample, 3 μg of high quality RNA is retrotranscribed with iScript Advanced™ (BioRad) in a final volume of 20 μl. Complete reaction mix is incubated in a thermal cycler (Eppendorf) at 42° C. for 30 minutes, and the reaction is stopped at 85° C. for 5 minutes. Complementary DNA is amplified by qPCR in a real-time PCR thermocycler (BioRad) using SYBR Green Supermix™ (BioRad) in the 96-well plate for use with SYBR® Green (BioRad). SYBR Green binds to double-stranded DNA molecules and emits fluorescence which is quantified, and the fluorescence intensity is proportional to the amount of the product in the PCR reaction. Cycling conditions in BioRad CFX96™ instrument are: 95° C. for 3 minutes, followed by 40 cycles of denaturing at 95° C. for 5 seconds, annealing and elongation at 60° C. for 30 seconds. GAPDH (Glyceraldehyde 3-phosphate dehydrogenase), TBP (TATA box binding protein) and HRPT1 (hypoxanthine phosphoribosyltransferase 1) are used as endogenous controls. Fold change relative to the expression of the sample genes and reference genes is calculated using normalized expression (AA(Ct)) method using CFX Manager Software™ (BioRad).
Fold induction of JARID1A gene at 7:30 hour with respect to basal conditions at 7:30 hour for the samples tested are shown in Table 7. The data for fold induction represent the value of one experiment.

[1] = test system: Phenion Full-Thickness Skin models; assay: Hydration level in synchronized human full-thickness skin models; format: cell-based; settings: 0.5 mg/ml, 48 hours of treatment, one assay
Protocol: Measurement of Hydration Level in Synchronized Human Full-Thickness Skin Models.
Immediately after arrival, the Phenion® Full-Thickness Skin models (HENKEL) are placed in Petri dishes (5 skin models per condition) according to the supplier's instructions in ALI medium (HENKEL). After 72 hours incubation at 37° C., 5% CO2, a synchronization protocol is initialized. For this purpose, skin models are subjected to two alternative cycles of 12 hours each at 37° C. in 5% CO2 humidified air (day mode) and 33° C. in 5% CO2 humidified air (night mode). At the beginning of the synchronization, pre-treatment measurement of hydration at 7:30 hours is tested in skin models. Hydration measurements of the epidermis are performed with DPM 9003 BT™ (NOVA® Technology Corporation) and with MoistureMeter SC™ (Delphin). For pre-treatment measurements, skin model's surface is washed with 5 ml of Phosphate Buffered Saline (PBS, Sigma). […]
The results in Table 13 show the mean of the percentage of hydration levels at 7:30 hours after 48 hours of treatment relative to hydration levels in basal conditions. […] These values are calculated for one assay. […]
The results in Table 14 represent the mean of the percentage of hydration levels at 7:30 hours after 48 hours of treatment relative to hydration levels in basal conditions at the same time. […] These values are calculated for one assay. […]

H-Phe-Trp-Met-Lys-Arg-Lys-Arg-Val-Pro-NH2 (H-FWMKRKRVP-NH2) [PEP-1]
Fold induction with respect to Basal condition at 7:30h (%) (JARID1A gene): 212.39% | Hydration level (%) ([1]; 7:30 h, relative to basal conditions 7:30 h, MoistureMeter SC): 110.1% | Hydration level at 7:30 hours (%) ([1]; relative to basal conditions, DPM9003 BT): 131.6%
